Measured values published in ChEMBL document CHEMBL1201862, “PubChem BioAssay data set” (2004).
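In this assay, cells in 96-well plates receive the compound at five concentrations for 48 hours. Endpoints are linearly interpolated between the surrounding concentrations. GI50 is the concentration that inhibits growth by half.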 Activity calls are given as the source filed them. Cut-off read from the data, not from the text of the source: active = GI50 up to about 1.1 µM and inactive = higher.

Key:
Assay in all cases: NCI tumour cell line growth inhibition, 48 h
SNB-75 = test system: SNB-75
Malme-3M = test system: Malme-3M
NCI-H23 = test system: NCI-H23
NCI-H522 = test system: NCI-H522
CCRF-CEM = test system: CCRF-CEM
BT-549 = test system: BT-549
SF-295 = test system: SF-295
KM12 = test system: KM12
T47D = test system: T47D
OVCAR-8 = test system: OVCAR-8
SF-268 = test system: SF-268
UACC-62 = test system: UACC-62
NCI/ADR-RES = test system: NCI/ADR-RES
HT-29 = test system: HT-29
RPMI-8226 = test system: RPMI-8226
SNB-19 = test system: SNB-19
MDA-MB-231 = test system: MDA-MB-231
UACC-257 = test system: UACC-257
CAKI-1 = test system: CAKI-1
TK-10 = test system: TK-10
RXF 393 = test system: RXF 393
SK-MEL-2 = test system: SK-MEL-2
HL-60 = test system: HL-60
NCI-H226 = test system: NCI-H226
SR = test system: SR
HOP-92 = test system: HOP-92
SK-MEL-5 = test system: SK-MEL-5
U-251 = test system: U-251
OVCAR-3 = test system: OVCAR-3
UO-31 = test system: UO-31
OVCAR-5 = test system: OVCAR-5
HCT-116 = test system: HCT-116
MDA-N = test system: MDA-N
Hs-578T = test system: Hs-578T
A498 = test system: A498
MDA-MB-435 = test system: MDA-MB-435
LOX IMVI = test system: LOX IMVI
MCF7 = test system: MCF7
SK-OV-3 = test system: SK-OV-3
NCI-H460 = test system: NCI-H460
K562 = test system: K562
A549 = test system: A549
786-0 = test system: 786-0
ACHN = test system: ACHN
COLO 205 = test system: COLO 205
M14 = test system: M14
HCT-15 = test system: HCT-15
SF-539 = test system: SF-539
SW-620 = test system: SW-620
MOLT-4 = test system: MOLT-4
OVCAR-4 = test system: OVCAR-4
IGROV-1 = test system: IGROV-1
HOP-62 = test system: HOP-62
PC-3 = test system: PC-3
EKVX = test system: EKVX
DU-145 = test system: DU-145
SK-MEL-28 = test system: SK-MEL-28
SN12C = test system: SN12C

`O=c1c(Cc2ccccc2)c(-c2ccccc2)[nH]n1C1=NCCN1` was tested, and the GI50 (SNB-75) was 22 µM (inactive), the GI50 (Malme-3M) was 25.4 µM (inactive) and the GI50 (NCI-H23) was 62.5 µM (inactive). The GI50 (NCI-H522) was 40.5 µM (inactive), the GI50 (CCRF-CEM) was 16.7 µM (inactive) and the GI50 (BT-549) was > 100 µM (inactive). For the same compound, the GI50 (SF-295) was 43.6 µM (inactive), the GI50 (KM12) was 61 µM (inactive) and the GI50 (T47D) was 45.3 µM (inactive). The GI50 (OVCAR-8) was 40 µM (inactive), the GI50 (SF-268) was 28.4 µM (inactive) and the GI50 (UACC-62) was 32.2 µM (inactive). For the same compound, the GI50 (NCI/ADR-RES) was 27.7 µM (inactive), the GI50 (HT-29) was 24.2 µM (inactive) and the GI50 (RPMI-8226) was 47 µM (inactive). The GI50 (SNB-19) was 76.4 µM (inactive), the GI50 (MDA-MB-231) was > 100 µM (inactive) and the GI50 (UACC-257) was 52.6 µM (inactive). The GI50 (CAKI-1) was 72.1 µM (inactive), the GI50 (TK-10) was 37.6 µM (inactive) and the GI50 (RXF 393) was 92.9 µM (inactive). For the same compound, the GI50 (SK-MEL-2) was 28.4 µM (inactive), the GI50 (HL-60) was 15.1 µM (inactive) and the GI50 (NCI-H226) was 46 µM (inactive). The GI50 (SR) was 22.8 µM (inactive), the GI50 (HOP-92) was 44.7 µM (inactive) and the GI50 (SK-MEL-5) was 32.4 µM (inactive). The GI50 (U-251) was 33.6 µM (inactive), the GI50 (OVCAR-3) was 24.4 µM (inactive) and the GI50 (UO-31) was 42.6 µM (inactive). The GI50 (OVCAR-5) was 72.6 µM (inactive), the GI50 (HCT-116) was 24.6 µM (inactive) and the GI50 (MDA-N) was 38.5 µM (inactive). For the same compound, the GI50 (Hs-578T) was 39.4 µM (inactive), the GI50 (A498) was > 100 µM (inactive) and the GI50 (MDA-MB-435) was 24.8 µM (inactive). The GI50 (LOX IMVI) was 15.5 µM (inactive), the GI50 (MCF7) was 40.1 µM (inactive) and the GI50 (SK-OV-3) was > 100 µM (inactive). For the same compound, the GI50 (NCI-H460) was 16.9 µM (inactive), the GI50 (K562) was 53.5 µM (inactive) and the GI50 (A549) was 40.5 µM (inactive). The GI50 (786-0) was 37.3 µM (inactive), the GI50 (ACHN) was 29.3 µM (inactive) and the GI50 (COLO 205) was 35.2 µM (inactive). The GI50 (M14) was 25.3 µM (inactive), the GI50 (HCT-15) was 7.74 µM and the GI50 (SF-539) was 58.1 µM (inactive). For the same compound, the GI50 (SW-620) was 38.6 µM (inactive), the GI50 (MOLT-4) was 35.5 µM (inactive) and the GI50 (OVCAR-4) was 54.2 µM (inactive). The GI50 (IGROV-1) was 36.5 µM (inactive), the GI50 (HOP-62) was 56 µM (inactive) and the GI50 (PC-3) was 36.8 µM (inactive). The GI50 (EKVX) was 39.1 µM (inactive).

For `Cc1ccc(N(Cc2ccccc2)Cc2ccccc2)cc1`, the GI50 (SNB-75) was 68.7 µM (inactive), the GI50 (Malme-3M) was 17 µM (inactive) and the GI50 (NCI-H23) was > 100 µM (inactive). For the same compound, the GI50 (NCI-H522) was 22 µM (inactive), the GI50 (CCRF-CEM) was 28 µM (inactive) and the GI50 (BT-549) was > 100 µM (inactive). For the same compound, the GI50 (SF-295) was 35.1 µM (inactive), the GI50 (KM12) was 29.5 µM (inactive) and the GI50 (T47D) was 30.9 µM (inactive). The GI50 (OVCAR-8) was > 100 µM (inactive), the GI50 (SF-268) was 50.1 µM (inactive) and the GI50 (UACC-62) was 82.4 µM (inactive). For the same compound, the GI50 (NCI/ADR-RES) was > 100 µM (inactive), the GI50 (HT-29) was 29.9 µM (inactive) and the GI50 (RPMI-8226) was 18.5 µM (inactive). The GI50 (SNB-19) was > 100 µM (inactive), the GI50 (MDA-MB-231) was > 100 µM (inactive) and the GI50 (UACC-257) was 42.4 µM (inactive). For the same compound, the GI50 (CAKI-1) was 47.9 µM (inactive), the GI50 (TK-10) was > 100 µM (inactive) and the GI50 (RXF 393) was 59 µM (inactive). The GI50 (SK-MEL-2) was 24.3 µM (inactive), the GI50 (HL-60) was 51.4 µM (inactive) and the GI50 (NCI-H226) was > 100 µM (inactive). For the same compound, the GI50 (SK-MEL-5) was 32.1 µM (inactive), the GI50 (U-251) was 65.9 µM (inactive) and the GI50 (OVCAR-3) was 32.8 µM (inactive). For the same compound, the GI50 (UO-31) was 48.4 µM (inactive), the GI50 (DU-145) was > 100 µM (inactive) and the GI50 (OVCAR-5) was > 100 µM (inactive). For the same compound, the GI50 (HCT-116) was 28.6 µM (inactive), the GI50 (MDA-N) was 33.8 µM (inactive) and the GI50 (Hs-578T) was 40.5 µM (inactive). For the same compound, the GI50 (A498) was 61.4 µM (inactive), the GI50 (MDA-MB-435) was 37.2 µM (inactive) and the GI50 (LOX IMVI) was 34 µM (inactive). The GI50 (MCF7) was 37.8 µM (inactive), the GI50 (SK-OV-3) was > 100 µM (inactive) and the GI50 (NCI-H460) was > 100 µM (inactive). For the same compound, the GI50 (K562) was 55.8 µM (inactive), the GI50 (A549) was 36.9 µM (inactive) and the GI50 (786-0) was 73.3 µM (inactive). The GI50 (ACHN) was > 100 µM (inactive), the GI50 (COLO 205) was 24.3 µM (inactive) and the GI50 (M14) was 55.2 µM (inactive). For the same compound, the GI50 (HCT-15) was 40.9 µM, the GI50 (SF-539) was > 100 µM (inactive) and the GI50 (SW-620) was 46.3 µM (inactive). The GI50 (SK-MEL-28) was 54.2 µM (inactive), the GI50 (MOLT-4) was 23.8 µM (inactive) and the GI50 (SN12C) was 72.3 µM (inactive). The GI50 (OVCAR-4) was 32.7 µM (inactive), the GI50 (IGROV-1) was 23.7 µM (inactive) and the GI50 (HOP-62) was 26.7 µM (inactive). The GI50 (PC-3) was 48.4 µM (inactive) and the GI50 (EKVX) was 35.8 µM (inactive).
